According to patent US9388141B2, “Acylaminocycloalkyl compounds suitable for treating disorders that respond to modulation of dopamine D3 receptor” (AbbVie Deutschland GmbH & Co. KG, priority 2013, dated 2016):

Experiments:
[1] = target: T1, human dopamine D3 receptors (Homo sapiens, UniProt P35462); assay: Dopamine D3 receptor binding, [125I]-iodosulpride displacement; settings: membranes of HEK-293 cells with human D3 receptors, 0.1 nM [125I]-iodosulpride
T1 construct: expressed in transfected cells; host or cells: HEK-293
Experimental: (§1) The substance to be tested was either dissolved in methanol/Chremophor® (BASF SE) or in dimethyl sulfoxide and then diluted with water to the desired concentration.
(§2) Each assay mixture was run in triplicate. • The incubation buffer contained 50 mM tris, 120 mM NaCl, 5 mM KCl, 2 mM CaCl2, 2 mM MgCl2 and 0.1% bovine serum albumin, 10 μM quinolone and 0.1% ascorbic acid (prepared fresh daily). […] Each assay mixture was run in triplicate. • The incubation buffer contained 50 mM tris, 120 mM NaCl, 5 mM KCl, 2 mM CaCl2, 2 mM MgCl2 and 0.1% bovine serum albumin. The buffer was adjusted to pH 7.4 with HCl. c) Measurement and Analysis: • After having been incubated at 25° C. for 60 minutes, the assay mixtures were filtered through a Whatman GF/B glass fiber filter under vacuum using a cell collecting device. The filters were transferred to scintillation viols using a filter transfer system. After 4 ml of Ultima Gold® (Packard) have been added, the samples were shaken for one hour and the radioactivity was then counted in a Beta-Counter (Packard, Tricarb 2000 or 2200CA).

[2] = target: T2, human dopamine D2L receptors (long isoform) (Homo sapiens, UniProt P14416); assay: Dopamine D2L receptor binding, [125I]-iodospiperone displacement; settings: selectivity ratio Ki (D2L)/Ki (D3)
T2 construct: expressed in transfected cells; host or cells: HEK-293
Experimental: as §1, §2

[3] = Determination of the microsomal half-life / microsomal clearance; type: in vitro ADME; settings: human liver microsomes, 0.5 μM test substance, 0.25 mg microsomal protein/ml, pH 7.4, 37° C.
Experimental: The metabolic stability of the compounds of the invention was determined in the following assay.
The test substances were incubated in a concentration of 0.5 μM as follows:
0.5 μM test substance are preincubated together with liver microsomes from different species (from rat, human or other species) (0.25 mg of microsomal protein/ml) in 0.05 M potassium phosphate buffer of pH 7.4 in microtiter plates at 37° C. for 5 min. The reaction is started by adding NADPH (1 mg/mL). After 0, 5, 10, 15, 20 and 30 min, 50 μl aliquots are removed, and the reaction is immediately stopped and cooled with the same volume of acetonitrile. The samples are frozen until analyzed. The remaining concentration of undegraded test substance is determined by MSMS. The half-life (T1/2) is determined from the gradient of the signal of test substance/unit time plot, it being possible to calculate the half-life of the test substance, assuming first order kinetics, from the decrease in the concentration of the compound with time. The microsomal clearance (mCl) is calculated from mCl=1n2/T1/2/(content of microsomal protein in mg/ml)×1000 [[…]] (modified from references: Di, The Society for Biomoleculur Screening, 2003, 453-462; Obach, DMD, 1999 vol 27. N 11, 1350-1359).

hERG cardiac K+ channel = target: T3, hERG cardiac K+ channel (Homo sapiens, UniProt Q12809); assay: Blocking the hERG channel, [3H]dofetilide displacement; type: binding; settings: membrane homogenate of HEK 293 cells with hERG K+ channels
T3 construct: expressed in transfected cells; host or cells: HEK-293
Experimental: The binding affinity of test drugs for the hERG cardiac K^+ channel was determined by their ability to displace tritiated dofetilide (a class III antiarrhythmic drug and potent hERG blocker) in membrane homogenates from HEK-293 cells heterogeneously expressing the hERG channel. The assay was performed as previously described G. J. Diaz et al., Journal of Pharmacological and Toxicological Methods, 50 (2004), 187-199). For this, drug dilutions were prepared from 10 mM DMSO stocks and the following were added to a 96-well polystyrene plate (Perkin-Elmer Optiplate): 20 μl of assay binding buffer (for total bounds), or […] astemizole (for non-specific bounds), or test drug, 50 μl of [^3H]dofetilide (20 nM, ˜80 Ci/mmol specific activity), and 130 μl of membrane homogenate from HEK 293 cells stably transfected with hERG K^+ channels (final protein concentration of 30 μg per well). The plates were incubated at ambient temperature for […], aspirated onto GF/B filter plates (Perkin-Elmer), and washed with 2 ml of cold wash buffer. After allowing the plates to dry, 50 μl of scintillant (Perkin-Elmer MicroScint 20) were added to each well and the radioactivity was counted in a Perkin-Elmer Topcount NXT scintillation counter. […]

T1 sequence (P35462 whole entry): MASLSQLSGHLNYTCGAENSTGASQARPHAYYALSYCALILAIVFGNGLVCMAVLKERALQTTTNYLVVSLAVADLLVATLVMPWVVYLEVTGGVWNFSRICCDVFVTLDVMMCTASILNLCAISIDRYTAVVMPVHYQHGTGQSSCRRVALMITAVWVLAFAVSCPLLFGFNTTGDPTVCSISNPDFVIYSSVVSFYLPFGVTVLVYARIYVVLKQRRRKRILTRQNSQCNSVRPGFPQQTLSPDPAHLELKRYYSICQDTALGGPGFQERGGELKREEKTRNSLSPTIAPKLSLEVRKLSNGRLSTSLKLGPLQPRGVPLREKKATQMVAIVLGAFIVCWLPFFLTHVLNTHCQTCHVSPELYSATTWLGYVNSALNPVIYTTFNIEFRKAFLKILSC
T2 sequence (P14416 whole entry, canonical isoform): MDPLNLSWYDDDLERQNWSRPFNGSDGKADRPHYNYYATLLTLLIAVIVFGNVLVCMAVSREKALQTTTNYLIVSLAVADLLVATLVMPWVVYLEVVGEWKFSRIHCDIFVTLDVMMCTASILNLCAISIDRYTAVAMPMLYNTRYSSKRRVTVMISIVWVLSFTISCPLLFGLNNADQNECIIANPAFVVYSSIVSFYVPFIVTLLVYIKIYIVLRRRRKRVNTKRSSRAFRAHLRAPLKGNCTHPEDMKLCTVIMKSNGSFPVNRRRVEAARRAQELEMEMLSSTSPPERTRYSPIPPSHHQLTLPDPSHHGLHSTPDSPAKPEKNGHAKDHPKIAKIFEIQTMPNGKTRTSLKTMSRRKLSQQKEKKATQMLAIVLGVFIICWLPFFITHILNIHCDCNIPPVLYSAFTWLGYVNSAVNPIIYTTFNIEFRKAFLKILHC
T3 sequence (Q12809 whole entry): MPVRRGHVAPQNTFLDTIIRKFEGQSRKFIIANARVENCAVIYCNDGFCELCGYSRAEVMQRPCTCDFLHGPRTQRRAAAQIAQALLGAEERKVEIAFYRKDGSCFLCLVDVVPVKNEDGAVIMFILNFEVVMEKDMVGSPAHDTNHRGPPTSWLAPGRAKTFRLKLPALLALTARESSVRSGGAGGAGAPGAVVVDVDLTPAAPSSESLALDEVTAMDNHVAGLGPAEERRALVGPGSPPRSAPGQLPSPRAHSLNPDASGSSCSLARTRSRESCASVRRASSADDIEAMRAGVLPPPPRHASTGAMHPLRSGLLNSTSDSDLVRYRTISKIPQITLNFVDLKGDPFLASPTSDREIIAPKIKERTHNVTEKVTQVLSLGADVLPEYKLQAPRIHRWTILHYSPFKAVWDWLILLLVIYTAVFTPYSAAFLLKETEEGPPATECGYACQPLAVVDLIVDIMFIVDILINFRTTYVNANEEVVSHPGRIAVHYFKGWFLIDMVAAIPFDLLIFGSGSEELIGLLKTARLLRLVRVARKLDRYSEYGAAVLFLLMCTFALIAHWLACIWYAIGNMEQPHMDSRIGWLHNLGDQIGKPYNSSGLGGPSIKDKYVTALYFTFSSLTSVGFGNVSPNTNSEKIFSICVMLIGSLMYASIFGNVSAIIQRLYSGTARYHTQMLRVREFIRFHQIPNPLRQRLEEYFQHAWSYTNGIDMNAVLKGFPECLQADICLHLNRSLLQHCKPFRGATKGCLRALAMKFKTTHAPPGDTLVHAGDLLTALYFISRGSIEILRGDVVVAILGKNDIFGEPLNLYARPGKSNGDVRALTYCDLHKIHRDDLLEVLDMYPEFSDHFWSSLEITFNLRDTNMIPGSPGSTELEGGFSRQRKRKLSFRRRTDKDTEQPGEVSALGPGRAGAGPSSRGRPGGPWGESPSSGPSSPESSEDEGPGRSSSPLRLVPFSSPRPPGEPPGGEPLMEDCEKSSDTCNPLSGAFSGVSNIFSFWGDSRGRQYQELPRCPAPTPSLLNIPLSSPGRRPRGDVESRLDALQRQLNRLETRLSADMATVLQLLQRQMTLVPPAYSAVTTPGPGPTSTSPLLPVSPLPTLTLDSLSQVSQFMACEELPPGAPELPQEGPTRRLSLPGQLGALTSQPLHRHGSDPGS

Structure (SMILES) | Ki [1] [nM] | D2/D3, Ki (D2L)/Ki (D3) [2] | Human mCl [3] | IC50 (hERG cardiac K+ channel) [nM]
CC(C)(C)c1nc(C2CCC2)cc(N2CCN(CC[C@H]3CC[C@H](NC(=O)[C@H]4CC[C@H](O)CC4)CC3)CC2)n1 [Compound 1, trans-N-[trans-4-[2-[4-(2-tert-butyl-6-cyclobutyl-pyrimidin-4-yl)piperazin-1-yl]ethyl]cyclohexyl]-4-hydroxy-cyclohexanecarboxamide] | < 10 | +++ (+++>50) | + (+: 20-120 μl min^−1 mg^−1) | > 10000
CC(C)(C)c1nc(C2CCC2)cc(N2CCN(CC[C@H]3C[C@H](NC(=O)[C@H]4CC[C@@H](O)CC4)C3)CC2)n1.O=C(O)C(F)(F)F [Compound 16, Cis-N-[trans-3-[2-[4-(2-tert-butyl-6-cyclobutyl-pyrimidin-4-yl)piperazin-1-yl]ethyl]cyclobutyl]-4-hydroxy-cyclohexanecarboxamide; 2,2,2-trifluoroacetic acid] | < 10 | ++ (++>20) | ∘ (∘: >120 μl min^−1 mg^−1) | 
CC(C)(C)c1nc(C2CCC2)cc(N2CCN(CC[C@H]3CC[C@H](NC(=O)[C@H]4C[C@H](O)C4)CC3)CC2)n1.O=C(O)C(F)(F)F [Compound 38, trans-N-[trans-4-[2-[4-(2-tert-butyl-6-cyclobutyl-pyrimidin-4-yl)piperazin-1-yl]ethyl]cyclohexyl]-3-hydroxy-cyclobutanecarboxamide; 2,2,2-trifluoroacetic acid] | < 10 | ++ (++>20) | ++ (++: <20 μl min^−1 mg^−1) | 
COCCc1cc(N2CCN(CC[C@H]3CC[C@H](NC(=O)[C@H]4CC[C@H](O)CC4)CC3)C[C@H]2C)nc(C(C)(C)C)n1 [Compound 34, trans-N-[trans-4-[2-[(3R)-4-[2-tert-butyl-6-(2-methoxyethyl)pyrimidin-4-yl]-3-methyl-piperazin-1-yl]ethyl]cyclohexyl]-4-hydroxy-cyclohexanecarboxamide] | < 10 | +++ (+++>50) | + (+: 20-120 μl min^−1 mg^−1) | 
COCCc1cc(N2CCN(CC[C@H]3C[C@@H](NC(=O)[C@H]4CC[C@H](O)CC4)C3)CC2)nc(C(C)(C)C)n1.O=C(O)C(F)(F)F [Compound 8, trans-N-[cis-3-[2-[4-[2-tert-butyl-6-(2-methoxyethyl)pyrimidin-4-yl]piperazin-1-yl]ethyl]cyclobutyl]-4-hydroxy-cyclohexanecarboxamide; 2,2,2-trifluoroacetic acid] | < 10 | +++ (+++>50) | + (+: 20-120 μl min^−1 mg^−1) | 
COCCc1cc(N2CCN(CC[C@H]3CC[C@H](NC(=O)[C@H]4CC[C@H](O)CC4)CC3)CC2)nc(C(C)(C)C)n1 [Compound 2, trans-N-[trans-4-[2-[4-[2-tert-butyl-6-(2-methoxyethyl)pyrimidin-4-yl]piperazin-1-yl]ethyl]cyclohexyl]-4-hydroxy-cyclohexanecarboxamide] | < 10 | ++ (++>20) | + (+: 20-120 μl min^−1 mg^−1) | 
COCCc1cc(N2CCN(CC[C@H]3CC[C@H](NC(=O)[C@H]4CC[C@H](OC)CC4)CC3)CC2)nc(C(C)(C)C)n1 [Compound 24, trans-N-[trans-4-[2-[4-[2-tert-butyl-6-(2-methoxyethyl)pyrimidin-4-yl]piperazin-1-yl]ethyl]cyclohexyl]-4-methoxy-cyclohexanecarboxamide] | < 50 | ++ (++>20) | ∘ (∘: >120 μl min^−1 mg^−1) | 
